# Laboratory results reported in patent publication US20260144807A1, “METHOD OF ADMINISTRATION OF A PARENTERAL FORMULATION COMPRISING A P[…]” (Cybin UK LTD, priority 2022, published 2026).
# Assays:
# healthy volunteers = details: single oral dose, interim analysis; cited from earlier work
# [1] = tested on: patients with major depressive disorder; assay: MADRS assessment, NCT04673383 Part B, IV infusion over about 10 minutes; assay type: in vivo, human; parameters: average percent reduction from baseline (MADRS) / Mean % reduction (MADRS): concentration or dose not given beside the values
# From the text: Therapeutic benefit or efficacy may be assessed using a rating scale. For patients with a depressive disorder such as MDD or TRD, the Montgomery-Asberg Depression Rating Scale (MADRS), the Hamilton Depression Rating Scale (HAMD-17) or the Beck's Depression Inventory (BDI-II) may be used. The rating scale is used prior to administration of the psychedelic agent, to provide a baseline assessment, and again after administration of the psychedelic agent.
# (§1) A double-blind, randomised, placebo-controlled study of intravenous doses of DMT fumarate, was carried out in patients with major depressive disorder, MDD, (ClinicalTrials.gov Identifier: NCT04673383, Part B). The protocol comprised the steps of:
# • MADRS assessment by an independent assessor
# (§2) • Administration of either a placebo or a dose of DMT fumarate by continuous intravenous infusion over a dosing period of about 10 minutes. • Tolerability assessment following cessation of the psychedelic experience. Study Day 8 (±1 day), Study Day 15 (±1 day) • MADRS assessment
# • Administration of a dose of DMT fumarate by continuous intravenous infusion over a dosing period of about 10 minutes. • Tolerability assessment following cessation of the psychedelic experience. Study Day 22 (+1 day), Study Day 29 (+2 days), Day 45 (+2 days), Day 105 (+2 days) • MADRS assessment
# (§3) The administration of the study drug, DMT fumarate, in NCT04673383, Part B was in accordance with the present invention. Group A received one dose of active (DMT fumarate) on Day 1 and were assessed using MADRS at Day 8 and Day 15. Group P received a placebo on Day 1, and were also assessed at Day 8 and Day 15. This comprised the blinded phase of the study. Group P subsequently received one dose of active in the open label phase of the study on Day 15 and were assessed at Day 22 and 29. Data from this group following administration of the active dose is represented as PA.
# As described above, Group A received one dose of active (DMT fumarate) on Day 1 and were assessed at Day 8 and Day 15. Group P received a placebo on Day 1, and were also assessed at Day 8 and Day 15.
# [2] = tested on: patients with major depressive disorder; assay: Beck Depression Inventory (BDI), NCT04673383 Part B; assay type: in vivo, human
# Protocol: as §1
# (§4) • Administration of either a placebo or a dose of DMT fumarate by continuous intravenous infusion over a dosing period of about 10 minutes. • Tolerability assessment following cessation of the psychedelic experience. Study Day 8 (±1 day), Study Day 15 (±1 day) • MADRS assessment […]
# as §3, with “This comprised the blinded phase of the study.” left out, “Data from this group following administration of the active dose is represented as PA.” left out
# Analysis of patient-reported depression scores corroborated the MADRS assessments conducted by independent clinical raters. Improvements in depression scores from baseline were observed across all study timepoints in patients receiving at least one dose of active, as measured by the Beck Depression Inventory (“BDI”). […]
# [3] = tested on: patients with major depressive disorder; assay: State-Trait Anxiety Inventory-Trait (STAI-T), NCT04673383 Part B; assay type: in vivo, human
# Protocol: as §1, §2
# • Administration of a dose of DMT fumarate by continuous intravenous infusion over a dosing period of about 10 minutes. • Tolerability assessment following cessation of the psychedelic experience. […]
# as §3, with “This comprised the blinded phase of the study.” left out, “Data from this group following administration of the active dose is represented as PA.” left out
# Measures assessing patients' anxiety and wellbeing, areas which are often negatively impacted by depression, were also analysed across the study. […]
# [4] = tested on: patients with major depressive disorder; assay: Warwick-Edinburgh Mental Wellbeing Scale (WEMWBS), NCT04673383 Part B; assay type: in vivo, human
# Protocol: as §1, §4
# as §3, with “This comprised the blinded phase of the study.” left out, “Data from this group following administration of the active dose is represented as PA.” left out
# Further, a rapid and sustained improvement in wellbeing was observed following administration of at least one dose of DMT fumarate in accordance with the invention, with supportive therapy, as measured by the Warwick-Edinburgh Mental Wellbeing Scale (“WEMWBS”).
# healthy adults [5] = assay: Tolerability question after psychedelic experience, NCT04673383 Part A; assay type: in vivo, human; details: all healthy volunteers, highest doses tested
# From the text: Tolerability may be assessed following cessation of the subjective psychedelic experience by asking the patent the question ‘Do you wish you had not gone through that experience?’ Yes responses are deemed to indicate poor tolerability, while No responses are deemed to indicate good tolerability.
# All patient participants in this study, after receiving one dose of DMT fumarate, answered NO to the question ‘Do you wish you had not gone through that experience?’, indicating good tolerability of the psychedelic agent. In Part A of the same study, healthy adults received single escalating doses of DMT fumarate. All healthy volunteers answered “no” to the same question at the highest doses tested.
# healthy adults [6] = assay: Challenging Experience Questionnaire (CEQ), NCT04673383 Part A; assay type: in vivo, human; details: active group, healthy participants
# From the text: Garcia-Romeu and Richards (International review of Psychiatry, Vol. 30, 2018, issue 4, pp 291-316) discuss the use of serotonergic hallucinogens in clinical interventions and state ‘issues, such as recent suicidality, drug or alcohol use disorders, dissociative disorders, and past history of trauma should be taken into account depending on the therapeutic target, as these may be exacerbated by high-dose psychedelic administration or increase risk for adverse events. ‘They further state: Psychodynamic-autobiographical experiences are predominated by emotional recollections and reflections on significant previous or current life events and relationships. […] A patient's subjective experience may be evaluated by the Challenging Experience Questionnaire (CEQ), a questionnaire designed to measure challenging psychological experiences associated with a psychedelic experience. […]
# The participant's experience was evaluated using the Challenging Experience Questionnaire (CEQ). In Part A of the study, a mean CEQ score of 0.172 was recorded for the active group, compared with a mean of 0.052 for the placebo group. […]
# [7] = tested on: patients with major depressive disorder; assay: Challenging Experience Questionnaire (CEQ), NCT04673383 Part B; assay type: in vivo, human
# From the text: Garcia-Romeu and Richards (International review of Psychiatry, Vol. 30, 2018, issue 4, pp 291-316) discuss the use of serotonergic hallucinogens in clinical interventions and state ‘issues, such as recent suicidality, drug or alcohol use disorders, dissociative disorders, and past history of trauma should be taken into account depending on the therapeutic target, as these may be exacerbated by high-dose psychedelic administration or increase risk for adverse events. ‘They further state: Psychodynamic-autobiographical experiences are predominated by emotional recollections and reflections on significant previous or current life events and relationships. […] A patient's subjective experience may be evaluated by the Challenging Experience Questionnaire (CEQ), a questionnaire designed to measure challenging psychological experiences associated with a psychedelic experience.
# as §3, with “This comprised the blinded phase of the study.” left out, “Data from this group following administration of the active dose is represented as PA.” left out
# [8] = Drug related serious adverse events, NCT04673383; assay type: in vivo, human; details: reported at the date of filing
# Protocol: A double-blind, randomised, placebo-controlled study of intravenous doses of DMT fumarate, was carried out in patients with major depressive disorder, MDD, (ClinicalTrials.gov Identifier: NCT04673383, Part B).
# [9] = tested on: patients with major depressive disorder; assay: D'Souza et al. HAMD-17 scores; assay type: in vivo, human; details: 1 day after final administration of 0.1 and 0.3 mg/kg doses
# Protocol: D'Souza et al report an ‘exploratory study of the dose-related safety, tolerability, and efficacy of dimethyltryptamine (DMT) in healthy volunteers and major depressive disorder’ (D. C. D'Souza, S. A. Syed, L. T. Flynn, H. Safi-Aghdam, N. V. Cozzi and M. Ranganathan, Neuropsychopharmacology (2022) 47:1854-1862). Seven patients with major depressive disorder received two doses of DMT hemifumarate (0.1 mg/kg, followed by 0.3 mg/kg) at least 48 hours apart. The participants were administered DMT by intravenous push over 30-60 seconds, i.e., a bolus injection.
# D'Souza et al report that the mean change in HAMD-17 scores between baseline (7 subjects) and 1 day after final administration of both a 0.1 mg/kg and a 0.3 mg/kg dose (6 subjects) was −4.5 (Table S6). This improvement approximates to an improvement on the MADRS scale of −3.9.
# healthy participants = assay: Perceived duration of the psychedelic experience; assay type: in vivo, human; details: 9 mg IV
# From the text: The onset and cessation of the psychedelic experience may be assessed by the attending clinician, psychiatrist or therapist. ‘Duration of the psychedelic experience’ as used herein refers to the time from the start of the continuous parenteral administration to the cessation of the psychedelic experience. The duration of the psychedelic experience may vary between patients. The term ‘duration’ as used herein, encompasses the mean duration of the psychedelic experience.
# The safety and tolerability of a single intravenous dose of a deuterated analogue of DMT is being investigated in healthy participants in an on-going clinical trial. The administration of the deuterated analogue of DMT is in accordance with the present invention. Tolerability is assessed post-psychedelic experience by the question ‘Do you wish you had not gone through that experience?’.
# A 9 mg dose of the deuterated analogue was administered in accordance with the present invention to a cohort of 6 psychedelic-experienced healthy participants. Preliminary data were compared with pharmacokinetic data from Part A of NCT04673383, Cohort 1 (9 mg DMT fumarate).
# IRVAS is a rating scale which measures the intensity of the psychedelic experience. Additionally, the perceived duration of the psychedelic experience was in the range 37-57 minutes for the deuterated analogue, compared with approximately 25 minutes for DMT.
# [10] = tested on: patients with major depressive disorder; details: baseline (7 subjects) vs 1 day after final administration of 0.1 mg/kg and 0.3 mg/kg doses (6 subjects); cited from earlier work
# [11] = tested on: healthy volunteer participants; details: all three healthy volunteers, 0.3 mg/kg, IV bolus; cited from earlier work
# [12] = tested on: 3 healthy volunteers and 6 patients; details: 0.3 mg/kg, IV bolus; cited from earlier work
# [13] = Group PA, 2 weeks, study Day 29
# [14] = day 8, blinded data for all patients (average of placebo and DMT fumarate patients)
# [15] = Group PA, open label phase, Day 105
smiles,measurement,setting,value
[2H]C([2H])([2H])N(C([2H])([2H])[2H])C([2H])([2H])C([2H])([2H])c1c[nH]c2cccc(O)c12 [CYB003],average duration of peak effects,healthy volunteers,≈ 2 hours
same,time to psychedelic effects,healthy volunteers,≤ 15 min
"CN(C)CCc1c[nH]c2ccccc12.O=C(O)/C=C/C(=O)O [DMT fumarate, N,N-dimethyltryptamine fumarate]",difference in mean change from baseline (MADRS) between Group A and Group P,"[1]; Day 8, active vs placebo, p=0.002",−10.8 points
same,difference in mean change from baseline (MADRS) between Group A and Group P,"[1]; Day 15, active vs placebo, p=0.02",−7.4 points
same,Mean change from baseline (MADRS),"[1]; Group A, 1 week from active dose, study Day 8",−12.7
same,% of subjects with a MADRS score ≤ 10,"[1]; Group A, 1 week, study Day 8",43.8%
same,% of subjects with ≥ 50% reduction from BL (MADRS),"[1]; Group A, 1 week, study Day 8",43.8%
same,Mean % reduction (MADRS),"[1]; Group A, 1 week, study Day 8",−48.2%
same,Mean change from baseline (MADRS),"[1]; Group A, 2 weeks from active dose, study Day 15",−11.0
same,% of subjects with a MADRS score ≤ 10,"[1]; Group A, 2 weeks, study Day 15",29.4%
same,% of subjects with ≥ 50% reduction from BL (MADRS),"[1]; Group A, 2 weeks, study Day 15",35.3%
same,Mean % reduction (MADRS),"[1]; Group A, 2 weeks, study Day 15",−41.0%
same,Mean change from baseline (MADRS),"[1]; Group PA (open label active after placebo), 1 week from active dose, study Day 22",−10.6
same,% of subjects with a MADRS score ≤ 10,"[1]; Group PA, 1 week, study Day 22",42.9%
same,% of subjects with ≥ 50% reduction from BL (MADRS),"[1]; Group PA, 1 week, study Day 22",42.9%
same,Mean % reduction (MADRS),"[1]; Group PA, 1 week, study Day 22",−40.6%
same,Mean change from baseline (MADRS),"[1]; Group PA, 2 weeks from active dose, study Day 29",−10.8
same,% of subjects with a MADRS score ≤ 10,[1]; [13],31.3%
same,% of subjects with ≥ 50% reduction from BL (MADRS),[1]; [13],43.8%
same,Mean % reduction (MADRS),[1]; [13],−36.7%
same,"difference in mean total MADRS score, statistical analysis","[1]; Group PA, all open-label study timepoints, p<0.05",statistically significant difference
same,average improvement on the MADRS score,[1]; [14],−7.5
same,average percent reduction from baseline (MADRS),[1]; [14],−18.4%
same,Self-Reported Depression (BDI CFB),"[2]; Active, blinded phase, Day 15, p = 0.002 active vs. placebo",−17.4
same,Self-Reported Depression (BDI CFB),[2]; [15],−19.7
same,Anxiety (STAI-T CFB),"[3]; Active, blinded phase, Day 15, p = 0.03 active vs. placebo",−11.0
same,Anxiety (STAI-T CFB),"[3]; Group PA, open label phase, Day 105 (12-weeks following the open label dose)",−14.2
same,Wellbeing (WEMWBS CFB),"[4]; Active, blinded phase, Day 15 (two-weeks following blinded dose)",10.1
same,Wellbeing (WEMWBS CFB),[4]; [15],9.8
same,answer to 'Do you wish you had not gone through that experience?' (tolerability),healthy adults [5],no
same,mean CEQ score,healthy adults [6],0.172
same,mean CEQ score,[7]; Group A,0.360
same,mean CEQ score,[7]; Group PA,0.350
same,drug related serious adverse events,[8],no drug related serious adverse events
"CN(C)CCc1c[nH]c2ccccc12 [DMT, 2-(1H-indol-3-yl)-N,N-dimethylethanamine]",improvement on the MADRS scale approximated from HAMD-17 change,[9],~−3.9
same,perceived duration of the psychedelic experience,healthy participants,approximately 25 minutes
same,mean change in HAMD-17 scores,[10],−4.5
same,"tolerability score (0-100, 0=intolerable, 100=well tolerated)",[11],greater than 70
same,mean score to 'how likely are you to use this drug?' (scale 0 to 100),[12],22.44
